Assays:
Blood cell counts = format: in vivo
[1] = tested on: LLC cells adhering to recombinant P-selectin; experiment: Adhesion of LLC cells to immobilized P-selectin; format: cell-based
From the text: LLC cells were “panned” onto wells precoated with recombinant P-selectin (R&D Systems, Minneapolis, M) as described (Brown et al., 2003; Fuster et al., Cancer Research 63: 2775-2781, 2003). The extent of adhesion was normalized to the value obtained for cells not treated with disaccharide. Controls included sialidase and anti-Ps monoclonal antibody treatment.

LS180 cells [2] = experiment: Cytolytic assay (51Cr release) with platelets; format: cell-based, human
[3] = tested on: sialyl Lewis X in HL-60, LS180, murine Lewis lung carcinoma, B16 murine melanoma cells; experiment: Inhibition of sialyl Lewis X formation in cultured cells; format: cell-based
From the text: The disaccharides can be acylated with, e.g., acetyl, butyryl or benzoyl groups to reduce their hydrophilicity and make them permeable to cell membranes. […] The various disaccharides described above and their acylated or aryl derivatives are logical extensions of the present invention. In addition, analogs of the above compounds in which critical hydroxyl groups are missing or alkylated would bind to glycosyltransfersase and inhibit their activity.

[4] = tested on: HAL8 human metastatic lung adenocarcinoma cells; experiment: Metastatic lung tumor formation in SCID mice (HAL8); format: in vivo
U937 cells = experiment: sLe^X expression in U937 cells; format: cell-based
From the text: (§1) A 4-deoxy modified acetylated disaccharide inhibits sLe^X expression in the absence of oligosaccharide priming.

[5] = tested on: LS180 cells adhering to recombinant E-selectin; experiment: Cell adhesion to immobilized E-selectin; format: cell-based, human; conditions: LS180 cells grown 5 days with disaccharide
Method: Cell adhesion to immobilized selectins. 96-well plates were coated overnight at 4° C. with recombinant E-selectin (4 μg/ml) or P-selectin (2 μg/ml) (R & D Systems) and blocked with 1% BSA/PBS. LS180 cells were grown for 5 days with various amounts of acetylated disaccharide, harvested, labeled with Calcein AM (5 μM, Molecular Probes) in DMEM/1% FBS, and allowed to settle at room temperature on selectin-coated wells (5×10^4 cells/well). Plates were then stirred at 75 rpm for 30 min (Orbit shaker, Lab-Line Instruments) followed by immersion upside-down in a vessel filled with Hank's buffered saline solution (HBSS, Sigma), which allowed non-adherent cells to fall under gravity. St John et al., J. Immunol Methods, 170: 159-166, 1994. The wells were then washed by aspiration using HBSS. LS180 cells were less adherent to P-selectin, so the immersion step was not necessary prior to washing. […] Fluorescence was measured using a 96-well fluorimeter (CytoFluor II), and the average of triplicate measurements was determined±standard error. Cell viability was judged to be >90% by Trypan blue exclusion at the end of each experiment.
Adhesion to selectins is altered in disaccharide-treated tumor cells. Treatment of LS180 cells with AcGnG-NM was not toxic to the cells up to 100 μM based on growth curves and exclusion of Trypan blue. […]

LS180 cells [6] = experiment: Biodistribution of pretreated radiolabeled tumor cells in mice; format: in vivo
Method: Biodistribution studies in mice. LS180 cells were grown for 3 days in the presence or absence of 50 μM AcGnG-NM. [^3H-methyl]thymidine (10 μCi/ml, NEN Life Sciences Products) was added to the medium, and cells were incubated for another 3 days. The cells were then harvested with EDTA, resuspended in sterile 0.9% saline, and injected (1×10^5 cells/100 μL) into the lateral tail vein of anesthetized (inhaled methoxyflurane, Janssen Pharmaceuticals) 6-8 week-old wildtype C57BL/6 mice or P-selectin deficient mice bred on the same background (Jackson Laboratory). Mayadas et al., Cell, 74: 541-554, 1993. […] The organs were digested at 55° C. overnight with Proteinase K (0.15 μg/ml, Boehringer Mannheim) in 2 mL PBS containing 1% sodium dodecyl sulfate, and homogenized by repeated passage through an 18 gauge needle. The amount of radioactive DNA in the blood and the organ extracts was then determined using an Easy DNA Kit (Invitrogen) and liquid scintillation spectrometry. The total counts in blood were estimated by assuming a total blood volume of 2 mL per mouse. Proper attention has been given to experimental ethical considerations towards animals as prescribed by the Animal Subjects Program at the University of California.
Altered biodistribution of AcGnG-NM treated tumor cells. The lung is the major “first-pass” adhesion target for tumor cells introduced into the venous circulation. […] Radiolabeled cells were injected into the lateral tail vein of C57BL/6 mice, and allowed to circulate for 3 hours. Mice were sacrificed and DNA was extracted from organ homogenates and whole blood. The counts were normalized to the total recovered counts, which typically represented 80-90% of the injected samples. In FIG. 6A, each value represents the average recoveries from 4 wildtype mice±standard deviation from the mean. In FIG. 6B, the experiment was repeated in P-selectin deficient C57BL/6 mice that were injected with either control- or AcGnG-NM-treated LS180 cells. […]

mixed oligosaccharides = experiment: Oligosaccharide priming, [6-3H]Gal incorporation; format: cell-based
From the text: as §1

[7] = wildtype C57BL/6 mice, 3 hours, cells pretreated with 50 μM

- levels of blood cell components (Blood cell counts; in vivo): not affected
- Lymphocytes (Blood cell counts; n = 13): 6.1 ± 2.1 K/μL
- Neutrophils (Blood cell counts; n = 13): 1.5 ± 0.5 K/μL
- Platelets (Blood cell counts; n = 13): 1031 ± 174 K/μL
- Red Blood Cells (Blood cell counts; n = 13): 10.5 ± 0.9 M/μL
- Total Leukocytes (Blood cell counts; n = 13): 7.8 ± 2.6 K/μL
Substance: GlcNAcβ1,3Galβ-O-naphthalenemethanol [AcGnG-NM]
- cell adhesion to immobilized P-selectin [1]: moderate reduction
- platelet protection from cytolysis (LS180 cells [2]; cells pretreated with 50 μM for 6 days, mouse leukocytes and platelets): markedly reduced
- cytolysis in whole human blood (LS180 cells [2]; whole human blood, 3 hr): comparable results
- formation of sialyl Lewis X [3]: inhibit the formation of sialyl Lewis X
- lung tumor foci [4]: behaved similarly
- sLe^X expression (U937 cells): inhibit sLe^X expression
- adhesion to recombinant E-selectin [5]: reduced the ability of LS180 cells to adhere
- distribution of treated versus untreated cells (LS180 cells [6]; P-selectin deficient mice): no difference
- counts recovered in the blood compartment (LS180 cells [6]; [7]): corresponding increase
- seeding of the lungs (LS180 cells [6]; [7]): substantially reduced
- incorporation of [6-^3H]Gal into mixed oligosaccharides (mixed oligosaccharides): stimulates

From patent publication US7772192B2, “Compositions and methods for treatment of disease with acetylated disaccharides” (The Regents of the University of California, priority 2003, dated 2010)
